Measured values from patent US20150216992A1, “EXTENDED RELEASE COMPOSITIONS OF AN AMINOALKYL NITRATE” (CARDIOLYNX AG, priority 2012, published 2015).

What was measured:
L-NAME treated SHR rats = assay: Rat model for pharmacological activity using blood pressure as a marker; type: in vivo; conditions: AEN tosylate 0.5 mg/kg/h infused, valsartan 5 mg/kg single daily dose; for effect on blood pressure: after 1 and 2 weeks
Method: FIG. 5: Pharmacological activity of AEN tosylate, valsartan and AEN tosylate/valsartan combination on blood pressure in L-NAME treated SHR rats.
Column 1: AEN tosylate (0.5 mg/kg/h), column 2: valsartan (single dose 5 mg/kg), column 3: AEN tosylate (0.5 mg/kg/h) plus valsartan (single daily dose 5 mg/kg).
Hatched bars: blood pressure lowering versus control after 1 week, black solid bars after 2 weeks. Vertical axis: reduction in blood pressure in mm Hg
SHR rats were treated with L-NAME to increase blood pressure. Following treatment with L-NAME rats were treated continuously for two weeks with either AEN tosylate (1) with a continuously infused dose (using an osmotic pump) of 0.5 mg/kg/h (column 1 in FIG. 5), valsartan at 5 mg/kg, single daily dose (column 2 in FIG. 5) or AEN tosylate plus valsartan (combined doses, group 3 in FIG. 5). Effects on blood pressure were measured after 1 week and after 2 weeks of treatment.

[1] = in vivo; cited from earlier work
[2] = in vivo; cited from earlier work; remark: listed apart in the source

| SMILES | effect on blood pressure (L-NAME treated SHR rats) | NO-tolerance induction (L-NAME treated SHR rats; two weeks continuous treatment) | half-live [1] | development of nitrate tolerance [2] |
| --- | --- | --- | --- | --- |
| CCCCC(=O)N(Cc1ccc(-c2ccccc2-c2nnn[nH]2)cc1)[C@H](C(=O)O)C(C)C [valsartan] | lowered blood pressure | – | – | – |
| Cc1ccc(S(=O)(=O)O)cc1.NCCO[N+](=O)[O-] [AEN tosylate, 2-aminoethylnitrate (aen) tosylate] | continued pharmacological activity | without showing signs of NO-tolerance induction | – | – |
| NCCO[N+](=O)[O-] [AEN, 2-aminoethyl nitrate] | – | – | approx. 2 hours | no development of nitrate tolerance |
